Assay results published in ChEMBL document CHEMBL5131454, “Exploratory studies on soluble small molecule CD4 mimics as HIV entry inhibitors” (Bioorg Med Chem, 2022).
Converted amounts (≈) assume the structure as drawn.

Experiments:
[1] = (§1) Cytotoxicity against human TZM-bl cells assessed as reduction in cell viability by CellTiter-Glo 2.0 assay; format: toxicity, cell-based; settings: TZM-bl cells
[2] = system: TZM; assay: as §1; format: toxicity, cell-based; settings: tzm
[3] = system: TZM; assay: Cytotoxicity against human TZM-bl cells assessed as reduction in cell viability at <100 uM by CellTiter-Glo 2.0 assay; format: toxicity, cell-based
[4] = Aqueous solubility of the compound in PBS at pH 7.4 at 25 degC; format: physicochemical

SMILES | solubility [4] [mM] | CC50 [1] [µM] | CC50 [2] [µM] | Activity [3]
CC1(C)CC(NC(=O)C(=O)Nc2ccc(Cl)cc2)CC(C)(C)N1 |  | 177 |  | 
CC1(C)CC(NC(=O)C(=O)Nc2ccc(F)nc2)CC(C)(C)N1 |  | > 300 |  | 
COCCOCCOCCOCCOCCOCCOCCOCCOCCOCCOCCOCCNC(=O)CCC(=O)N[C@@H](CCCNC(=N)N)C(=O)NCCN1CCC(NC(=O)C(=O)Nc2ccc(Cl)cc2)CC12CCCCC2.O=C(O)C(F)(F)F.O=C(O)C(F)(F)F (some centres not stated) | > 13 | > 300 |  | Non-Toxic
N=C(N)NCCCCC(=O)NCCN1CCC(NC(=O)C(=O)Nc2ccc(F)nc2)CC12CCCCC2.O=C(O)C(F)(F)F.O=C(O)C(F)(F)F.O=C(O)C(F)(F)F (configuration not stated) |  | > 100 |  | Non-Toxic
COCCOCCOCCOCCOCCOCCOCCOCCOCCOCCOCCOCCNC(=O)CCC(=O)N[C@@H](CCCNC(=N)N)C(=O)NCCN1CCC(NC(=O)C(=O)Nc2ccc(F)nc2)CC12CCCCC2.O=C(O)C(F)(F)F.O=C(O)C(F)(F)F.O=C(O)C(F)(F)F (some centres not stated) |  | > 100 |  | Non-Toxic
N=C(N)NCCCCC(=O)NCCN1CCC(NC(=O)CNc2ccc(Cl)cn2)CC1.O=C(O)C(F)(F)F.O=C(O)C(F)(F)F.O=C(O)C(F)(F)F | > 50 | > 300 |  | Non-Toxic

Continued, in another order:

solubility [4] [mM] | SMILES | CC50 [1] [µM] | CC50 [2] [µM] | Activity [3]
> 16.4 | N=C(N)NCCCCC(=O)NCCN1CCC(NC(=O)C(=O)Nc2ccc(Cl)cc2)CC12CCCCC2.O=C(O)C(F)(F)F.O=C(O)C(F)(F)F (configuration not stated) |  | 201 | Non-Toxic
0.47 (≈ 251 µg/mL) | N=C(N)NCCCCC(=O)NCCN1CCC(NC(=O)C(=O)Nc2ccc(Cl)cc2)CC12CCCCC2 (configuration not stated) |  | > 100 | Non-Toxic
> 50 | N=C(N)NCCCCC(=O)NCCN1CCC(NC(=O)C(=O)Nc2cncc(F)c2)CC12CCCCC2.O=C(O)C(F)(F)F.O=C(O)C(F)(F)F.O=C(O)C(F)(F)F (configuration not stated) | > 300 |  | Non-Toxic
> 50 | N=C(N)NCCCCC(=O)NCCN1CCC(NC(=O)C(=O)Nc2cncc(Cl)c2)CC12CCCCC2.O=C(O)C(F)(F)F.O=C(O)C(F)(F)F.O=C(O)C(F)(F)F (configuration not stated) | 279 |  | Non-Toxic
> 50 | N=C(N)NCCCCC(=O)NCCN1CCC(NC(=O)C(=O)Nc2ccc(Cl)cn2)CC1.O=C(O)C(F)(F)F.O=C(O)C(F)(F)F.O=C(O)C(F)(F)F | > 300 |  | Non-Toxic
